Measured values from patent publication US20260226094A1, “STEROL-BASED CATIONIC LIPIDS WITH AROMATIC HEAD GROUPS” (SANOFI, priority 2023, published 2026).

Columns and labels:
[1] = Lipid degradability by human lung S9 in vitro; type: in vitro ADME; settings: 2 μM lipid, 2.4 mg/ml lung S9, pH 7.4, 37° C.
Protocol: (§1) Lipid degradability by MOUSE/HUMAN lung S9 in vitro
(§2) Assay format—4 or 5 time points in triplicate.
(§3) • 1) Plan experiment, compounds, and reagents. • 2) Dissolve each lipid in DMSO or IPA to make 5 mM stock, then dilute by IPA to 200 μM work solution. • 3) Thaw mouse and human lung S9. • 4) Prepare pooled incubation mixture as in the reaction formulas below on ice. • 5) Aliquot 495 μL incubation mixture prepared in step #4 to each well of a 2 mL 96-well plate. • 6) Add 5 μL compound to each well to initiate the reaction. Take t0 samples (as in step #8). • 7) Cover the plate with 2 layers of breathable seals and incubate the plate on an orbital shaker at 150 rpm in a 37° C. CO2 incubator. • 8) At each time point, pipette to mix the incubation mixture 5 times, then take 70 μL of incubation mixture to a fresh plate. Store in −20° C. freezer immediately. • 9) Add 210 μL (3× volume) of the cold stop solution to each well of the sample plates collected. Mix at 600 rpm on an orbital shaker for 15 min. • 10) Centrifuge the quenched plates at 3800 rpm for 10 min at 4° C. and transfer supernatant to fresh plates. • 11) Load the supernatant on filter plates and centrifuge again at 3800 rpm for 5 min at 4° C. Collect final samples in fresh plates for LC/MS.
(§4) • 4-5 Time points (hour): e.g. 0, 4, 8, 24, 48 hr • stop solution: 1:1:1 ACN/MeOH/IPA (v/v/v) with propranolol & MC3 as internal standard. Store at 4° C.

mice = experiment: Delivery of FFL mRNA by intranasal administration, IVIS luminescent imaging; type: in vivo, mouse; settings: lipid nanoparticle with FFL mRNA, dose 10 μg/Animal, 24 hours post dose
Protocol: Lipid nanoparticle formulation 3 listed in Table 1 comprising FFL mRNA, cationic lipid, DMG-PEG2000, cholesterol and DOPE was administered in mice via pipetting the formulations at 10 μg/Animal and 15 μl per nostril. On Day 2, 24 hours post dose (±5%), all animals undergo a luminescent imaging session using IVIS with separate ROIs on the nose and lungs. Whole body imaging are performed 10-15 minutes following D-Luciferin administration. All animals are dosed with 0.2 mL of 15 mg/mL D-luciferin solution via intraperitoneal (IP) injection. Anesthesia performed by isoflurane during the procedure and animals will be placed sternal recumbency (face-down). […]

[2] = Lipid degradability by mouse lung S9 in vitro; type: in vitro ADME; settings: 2 μM lipid, 2.4 mg/ml lung S9, pH 7.4, 37° C.
Protocol: as §1, §2, §3, §4

male CD1 mice = experiment: Delivery of FFL mRNA by intratracheal administration, IVIS luciferase imaging of the lung; type: in vivo, mouse; settings: lipid nanoparticles with FFL mRNA, single intratracheal administration via catheter, about 24 hours post-dose
Protocol: Lipid nanoparticle formulations listed in Table 1 comprising FFL mRNA, cationic lipid, DMG-PEG2000, cholesterol and DOPE were administered to male CD1 mice (6-8 weeks old) by a single intratracheal administration via Catheter® ([…]) while under anesthesia. At approximately 24 hours post-dose, the animals were dosed with luciferin at 150 mg/kg (60 mg/ml) by intraperitoneal injection at 2.5 ml/kg. After 5-15 minutes, all animals were imaged using an IVIS imaging system to measure luciferase production in the lung.

SMILES	In vitro degradation Human lung S9 [1]	FFLuc (Avr. Rad.) (mice)	In vitro degradation Mouse lung S9 [2]	in vivo FFL protein production (luciferase activity in the lung, FIG. 5) (male CD1 mice)
COc1cc(C(=O)OCCNC(=N)N)cc(OC)c1OC(=O)CCO[C@H]1CC[C@@]2(C)C(=CC[C@H]3[C@@H]4CC[C@H]([C@H](C)CCCC(C)C)[C@@]4(C)CC[C@@H]32)C1 [Compound III]	39.2 h	890,880 p/s/cm^2/sr	50.1 h	high levels of in vivo FFL protein production
COc1cc(C(=O)OCCCN(C)C)cc(OC)c1OC(=O)CCO[C@H]1CC[C@@]2(C)C(=CC[C@H]3[C@@H]4CC[C@H]([C@H](C)CCCC(C)C)[C@@]4(C)CC[C@@H]32)C1 [Compound II]	38.2 h	592,290 p/s/cm^2/sr	39.3 h	–
COc1cc(C(=O)OCCCNC(=N)N)cc(OC)c1OC(=O)CCO[C@H]1CC[C@@]2(C)C(=CC[C@@H]3C2CC[C@]2(C)[C@@H]([C@H](C)CCCC(C)C)CC[C@@H]32)C1 (some centres unmarked) [Compound IV]	62.9 h	833,279 p/s/cm^2/sr	69.6 h	high levels of in vivo FFL protein production
COc1cc(C(=O)OCCN(C)C)cc(OC)c1OC(=O)CCC(=O)O[C@H]1CC[C@@]2(C)C(=CC[C@H]3[C@@H]4CC[C@H]([C@H](C)CCCC(C)C)[C@@]4(C)CC[C@@H]32)C1 [Compound I]	22.2 h	421,679 p/s/cm^2/sr	23.6 h	–
